Reference: article PMC8496261 (RSC Chemical Biology, 2021)
Numbered stars: 1 amine (or outer) side, 2 acyl side, 3 side chain; on linkers, the order of the positions; unused ones are H or OH. Bridge positions count the residues as written; N and C are the ends. Peptide text beside a SMILES is read from it. * marks the point of attachment. FITC = O=C1OC2(c3ccc(O)cc3Oc3cc(O)ccc32)c2ccc(NC(=S)*)cc21; X1 = Cc1c(C[*:1])n2c(C[*:2])c(C)c(=O)n2c1=O; βAla = NCCC(=O)O

Columns and labels:
PCNA (hPCNA) = PCNA (hPCNA) (Homo sapiens, UniProt P12004); assay: SPR steady state binding affinity for PCNA; conditions: for PCNA binding affinity, in words: SPR, 2 compared with peptide 1, 9 compared with peptide 7
[1] = tested on: MDA-MB-468 breast cancer cells (mKate nuclear label); assay: Cell uptake assay imaged by confocal fluorescence microscopy; assay type: cell-based, human; conditions: MDA-MB-468 cells, 10 μM peptide, 24 h, fixed

Chain of PCNA (hPCNA) (P12004 whole entry): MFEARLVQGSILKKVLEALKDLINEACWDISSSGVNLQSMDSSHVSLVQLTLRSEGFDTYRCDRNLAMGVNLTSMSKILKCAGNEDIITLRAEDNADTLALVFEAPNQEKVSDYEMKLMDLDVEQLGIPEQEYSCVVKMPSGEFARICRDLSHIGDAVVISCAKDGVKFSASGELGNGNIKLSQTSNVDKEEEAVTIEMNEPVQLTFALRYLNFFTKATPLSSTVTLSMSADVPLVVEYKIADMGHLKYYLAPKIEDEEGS

With Ac-RQCSMTCFYHSK-NH2 [Peptide 2] the “PCNA binding affinity, in words” value (PCNA (hPCNA)) was “significantly reduced PCNA affinity”.
With `CSCC[C@@H]1NC(=O)[C@H](CO)NC(=O)[C@@H](NC(=O)[C@H](CCC(N)=O)NC(=O)[C@H](CCCNC(=N)N)NC(=O)CCNC(=S)Nc2ccc3c(c2)C(=O)OC32c3ccc(O)cc3Oc3cc(O)ccc32)CSCc2c(C)c(=O)n3c(=O)c(C)c(n23)CSC[C@@H](C(=O)N[C@@H](Cc2ccccc2)C(=O)N[C@@H](Cc2ccc(O)cc2)C(=O)N[C@@H](Cc2c[nH]cn2)C(=O)N[C@@H](CO)C(=O)N[C@@H](CCCCN)C(N)=O)NC(=O)[C@H]([C@@H](C)O)NC1=O` [Peptide 9] ({FITC-βAla}-RQCSMTCFYHSK-NH2; linker 3-7 via X1) the “PCNA binding affinity, in words” value (PCNA (hPCNA)) was “dramatically decreases the binding affinity” and the “intracellular distribution of peptide fluorescence” value [1] was “both blue and green fluorescence present throughout the cell cytoplasm”.
In the case of `CSCC[C@H](NC(=O)[C@H](CO)NC(=O)[C@@H](NC(=O)[C@H](CCC(N)=O)NC(=O)[C@@H](N)CCCNC(=N)N)[C@@H](C)O)C(=O)N[C@H](C(=O)N[C@@H](CC(=O)O)C(=O)N[C@@H](Cc1ccccc1)C(=O)N[C@@H](Cc1ccc(O)cc1)C(=O)N[C@@H](Cc1c[nH]cn1)C(=O)N[C@@H](CO)C(=O)N[C@@H](CCCCN)C(N)=O)[C@@H](C)O` [Peptide 1] (H-RQTSMTDFYHSK-NH2), the Kd (PCNA (hPCNA); SEM) is reported as 102 ± 5 nM.
